Counter-ions that a name gives are not always drawn.
Legend:
[1] = target: T1, recombinant human arginase 2 (Homo sapiens, UniProt P78540); test: Arginase inhibitory activity test, enzymatic assay based on urea measurement (Arg 2); type: biochemical; conditions: 37° C. for 120 min, urea detection, read-out: Arg 2 enzymatic potency
T1 sequence (P78540 23-354): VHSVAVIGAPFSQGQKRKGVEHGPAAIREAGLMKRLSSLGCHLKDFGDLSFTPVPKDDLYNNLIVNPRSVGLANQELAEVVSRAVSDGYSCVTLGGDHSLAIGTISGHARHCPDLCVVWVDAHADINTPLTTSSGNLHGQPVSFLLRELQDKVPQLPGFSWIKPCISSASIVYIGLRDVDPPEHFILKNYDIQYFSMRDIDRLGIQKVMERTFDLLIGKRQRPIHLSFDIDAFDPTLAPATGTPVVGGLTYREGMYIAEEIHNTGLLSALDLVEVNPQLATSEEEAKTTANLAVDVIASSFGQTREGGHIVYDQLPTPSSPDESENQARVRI
Source text: Urea was used as the standard.

[2] = target: T2, recombinant human arginase 1 (Homo sapiens, UniProt P05089); test: Arginase inhibitory activity test, enzymatic assay based on urea measurement (Arg 1);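 note: enzyme incubated with L-arginine substrate and compound at 37 °C for 120 min, urea product detected colorimetrically by absorbance at 450 nm, background from wells lacking enzyme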
T2 sequence (P05089 1-322): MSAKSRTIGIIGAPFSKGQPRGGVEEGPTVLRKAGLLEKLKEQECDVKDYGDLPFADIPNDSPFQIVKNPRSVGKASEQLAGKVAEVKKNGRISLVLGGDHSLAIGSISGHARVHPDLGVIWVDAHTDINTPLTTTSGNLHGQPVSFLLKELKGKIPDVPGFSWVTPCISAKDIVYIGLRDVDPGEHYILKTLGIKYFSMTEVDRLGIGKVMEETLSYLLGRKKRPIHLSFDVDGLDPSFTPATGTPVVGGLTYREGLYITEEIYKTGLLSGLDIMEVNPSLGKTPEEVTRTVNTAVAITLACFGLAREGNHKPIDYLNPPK

| Compound | IC50 [1] [nM] | IC50 [2] [nM] |
| --- | --- | --- |
| N=C(N)N1C[C@H](CCCB(O)O)[C@](N)(C(=O)O)C1 (racemic) [Example 37, rac-(trans)-3-amino-4-(3-boronopropyl)-1-carbamimidoylpyrrolidine-3-carboxylic acid, 2,2,2-trifluoroacetic acid salt (1:2)] | 100 to 1000 | 100 to 1000 |
| N[C@@]1(C(=O)O)CN(S(=O)(=O)N2CCNCC2)C[C@@H]1CCCB(O)O (racemic) [Example 30, (rac)-trans-3-amino-4-(3-boronopropyl)-1-(piperazin-1-ylsulfonyl)pyrrolidine-3-carboxylic acid, 2,2,2-trifluoroacetic acid salt (1:2)] | 100 to 1000 | < 100 |
| Nc1c(N2C[C@H](CCCB(O)O)[C@](N)(C(=O)O)C2)c(=O)c1=O (racemic) [Example 3, (rac)trans-3-amino-1-(2-amino-3,4-dioxocyclobut-1-en-1-yl)-4-(3-boronopropyl)pyrrolidine-3-carboxylic acid, (1:1) 2,2,2-trifluoroacetic acid salt] | 100 to 1000 | 100 to 1000 |
| NCCNS(=O)(=O)N1C[C@H](CCCB(O)O)[C@](N)(C(=O)O)C1 (racemic) [Example 5, (rac)trans-3-amino-1-(N-(2-aminoethyl)sulfamoyl)-4-(3-boronopropyl)pyrrolidine-3-carboxylic acid compound with 2,2,2-trifluoroacetic acid (1:2)] | < 100 | < 100 |
| N[C@@]1(C(=O)O)CN(S(=O)(=O)Nc2cc[nH]n2)C[C@@H]1CCCB(O)O (racemic) [Example 6, (rac)trans-1-(N-(1H-pyrazol-3-yl)sulfamoyl)-3-amino-4-(3-boronopropyl)pyrrolidine-3-carboxylic acid, (1:2) 2,2,2-trifluoroacetic acid salt] | 100 to 1000 | 100 to 1000 |
| CC(C)(N)CNS(=O)(=O)N1C[C@H](CCCB(O)O)[C@](N)(C(=O)O)C1 (racemic) [Example 25, (rac)-trans-3-amino-1-(N-(2-amino-2-methylpropyl)sulfamoyl)-4-(3-boronopropyl)pyrrolidine-3-carboxylic acid, (1:2) 2,2,2-trifluoroacetic acid salt] | < 100 | < 100 |
| NCC1(NS(=O)(=O)N2C[C@H](CCCB(O)O)[C@](N)(C(=O)O)C2)COC1 (racemic) [Example 31] | 100 to 1000 | < 100 |
| NC1CN(S(=O)(=O)N2C[C@H](CCCB(O)O)[C@](N)(C(=O)O)C2)C1 (racemic) [Example 33, (rac)-trans-3-amino-1-((3-aminoazetidin-1-yl)sulfonyl)-4-(3-boronopropyl)pyrrolidine-3-carboxylic acid, 2,2,2-trifluoroacetic acid salt (1:2)] | – | 100 to 1000 |
| NCC1(NS(=O)(=O)N2C[C@H](CCCB(O)O)[C@](N)(C(=O)O)C2)CC1 (racemic) [Example 12, (rac)trans-3-amino-1-(N-(1-(aminomethyl)cyclopropyl)sulfamoyl)-4-(3-boronopropyl)pyrrolidine-3-carboxylic acid, (1:2) 2,2,2-trifluoroacetic acid salt] | – | < 100 |
| NCC(=O)NS(=O)(=O)N1C[C@H](CCCB(O)O)[C@](N)(C(=O)O)C1 (racemic) [Example 8, (rac)trans-3-amino-4-(3-boronopropyl)-1-(N-glycylsulfamoyl)pyrrolidine-3-carboxylic acid, (1:2) 2,2,2-trifluoroacetic acid salt] | – | 100 to 1000 |
| CCN(C1CNC1)S(=O)(=O)N1C[C@H](CCCB(O)O)[C@](N)(C(=O)O)C1 (racemic) [Example 52, (racemic)-trans-3-amino-1-(N-(azetidin-3-yl)-N-ethylsulfamoyl)-4-(3-boronopropyl)pyrrolidine-3-carboxylic acid 2,2,2-trifluoroacetic acid salt (1:2)] | – | < 100 |
| N=C(N)NC(=O)N1C[C@H](CCCB(O)O)[C@](N)(C(=O)O)C1 (racemic) [Example 51, (racemic)-trans-3-amino-4-(3-boronopropyl)-1-(carbamimidoylcarbamoyl)pyrrolidine-3-carboxylic acid, 2,2,2-trifluoroacetic acid salt (1:2)] | – | 100 to 1000 |
| NC(=O)NS(=O)(=O)N1C[C@H](CCCB(O)O)[C@](N)(C(=O)O)C1 (racemic) [Example 53, (racemic)-trans-3-amino-4-(3-boronopropyl)-1-(N-carbamoylsulfamoyl)pyrrolidine-3-carboxylic acid 2,2,2-trifluoroacetic acid salt (1:2)] | – | 1000 to 10000 |
| CNCCNS(=O)(=O)N1C[C@H](CCCB(O)O)[C@](N)(C(=O)O)C1 (racemic) [Example 46, (racemic)-trans-3-amino-4-(3-boronopropyl)-1-(N-(2-(methylamino)ethyl)sulfamoyl)pyrrolidine-3-carboxylic acid, 2,2,2-trifluoroacetic acid salt (1:2)] | – | 100 to 1000 |
| N[C@@]1(C(=O)O)CN(S(=O)(=O)N(CC2CC2)[C@H]2CCCNC2)C[C@@H]1CCCB(O)O [Example 72, (3R,4S)-3-amino-4-(3-boronopropyl)-1-(N-(cyclopropylmethyl)-N-((S)-piperidin-3-yl)sulfamoyl)pyrrolidine-3-carboxylic acid, 2,2,2-trifluoroacetic acid salt (1:2)] | – | < 100 |
| NC1(CN(CC2CC2)S(=O)(=O)N2C[C@H](CCCB(O)O)[C@](N)(C(=O)O)C2)CC1 [Example 68, (3R,4S)-3-amino-1-(N-((1-aminocyclopropyl)methyl)-N-(cyclopropylmethyl)sulfamoyl)-4-(3-boronopropyl)pyrrolidine-3-carboxylic acid, 2,2,2-trifluoroacetic acid salt (1:2)] | – | < 100 |
| CCN(C1CNC1)S(=O)(=O)N1C[C@H](CCCB2O[C@H]3C[C@H]4C[C@H](C4(C)C)[C@@]3(C)O2)[C@](N)(C(=O)O)C1 [Example 75, (3R,4S)-3-amino-1-(N-(azetidin-3-yl)-N-ethylsulfamoyl)-4-(3-((3aR,4R,6R,7aS)-3a,5,5-trimethylhexahydro-4,6-methanobenzo[d][1,3,2]dioxaborol-2-yl)propyl)pyrrolidine-3-carboxylic acid] | – | < 100 |
| C[C@H](CN)NS(=O)(=O)N1C[C@H](CCCB(O)O)[C@](N)(C(=O)O)C1 (racemic) [Example 16, (rac)trans-3-amino-1-(N-((R)-1-aminopropan-2-yl)sulfamoyl)-4-(3-boronopropyl)pyrrolidine-3-carboxylic acid (diastereomers), 2,2,2-trifluoroacetic acid salt (1:2)] | – | < 100 |
| N[C@@]1(C(=O)O)CN(S(=O)(=O)N(CC2CC2)[C@H]2CCNC2)C[C@@H]1CCCB(O)O [Example 71, (3R,4S)-3-amino-4-(3-boronopropyl)-1-(N-(cyclopropylmethyl)-N-((S)-pyrrolidin-3-yl)sulfamoyl)pyrrolidine-3-carboxylic acid, 2,2,2-trifluoroacetic acid salt (1:2)] | – | < 100 |
| Nc1ccccc1NS(=O)(=O)N1C[C@H](CCCB(O)O)[C@](N)(C(=O)O)C1 (racemic) [Example 13, (rac)trans-3-amino-1-(N-(2-aminophenyl)sulfamoyl)-4-(3-boronopropyl)pyrrolidine-3-carboxylic acid, (1:2) 2,2,2-trifluoroacetic acid salt] | – | 100 to 1000 |
